Consider 1 compound from patent US20220378854A1, “COMPOSITION FOR PREVENTING, TREATING, OR IMPROVING GASTROINTESTINAL DISEASES COMPRISING STRAIN OF GENUS CORYNEBACTERIUM AND CULTURE THEREOF” (CJ CheilJedang Corporation, priority 2019, published 2022).

For test [1], the system named is WIRS rats. Description: WIRS rat model, stomach observed by naked eyes (gastrorrhagia). The settings on record: oral, 8 hours before WIRS; same threonine 0.15% by weight/diet; WIRS 6 hours. In kind it is in vivo. The method, then:
(§1) 110 SD rats in total were purchased from Charles River (Osaka, Japan) and stored in an animal facility. The experimental animals were handled in the authorized animal facility according to AAALAC International Animal Care Policies. The animals were fasted 24 hours prior to be exposed to WIRS, and water was freely available. 10 rats of each group were placed in a cage for WIRS and immersed in water for 6 hours.
Sample 1 to Sample 5 prepared in Example 8 were orally administered to rats 8 hours before WIRS treatment, so that the same amount of threonine was administered (0.15% by weight/diet), and after applying WIRS for 6 hours, the animals were sacrificed and the stomach was extracted and incised and contents were removed, and a picture of the inner surface of the stomach was taken and this was shown in FIG. 11.

Test [2] deals with WIRS rats. Description: mucin content in stomach tissue of WIRS rats by PAS staining. In kind it is in vivo, rat. The settings on record: oral 8 hours before WIRS, WIRS 6 hours. As to the method: (§2) They were divided into a untreated group in which nothing was treated after oral administration of saline solution ([…], animal experimental group 1), WIRS Group in which WIRS was applied for 6 hours ([…], animal experimental group 2), and animal experimental groups in which feed containing Sample 1 (prepared in Example 8) of 0.15% by weight (animal experimental group 3) and feed containing Sample 3 (prepared in Example 8) of 0.21% by weight (animal experimental group 4) were orally treated by 30 mg/kg body, respectively, 8 hours before WIRS treatment. The content of L-Thr (L-threonine) in the feed of the animal experimental groups 3 and 4 was set to 0.15% by weight/diet equally.
In the stomach tissue of the animal experimental groups 1 to 4, the mucin content was confirmed by PAS staining, and the result was shown in FIG. 10.

Test [3] relates to WIRS rats. Description: apoptosis proteins in WIRS rats (western blot). The following applies: oral 8 hours before WIRS; WIRS 6 hours. In kind it is in vivo, rat. As to the method:
as §2
In addition, in each of the animal experimental groups 1-4, the protein level of p-IκBα, p-ERK, and p-JNK was measured and shown in FIG. 8c and FIG. 8d. Specifically, to perform western blot for measuring the protein level, the collected gastric mucosa was homogenized in ice-cold 20 mM Tris-HCl buffer (pH 7.5) containing 2 mM EDTA (ethylenediaminetetraacetic acid), 0.5 mM EGTA (ethylene glycol tetraacetic acid), 300 mM sucrose, and 2 mM PMSF (phenylmethylsulfonyl fluoride) with a tissue homogenator. After electrophoresis of protein of 30 μg in 8% SDS-PAGE (sodium dodecyl sulfate-polyacrylamide gel electrophoresis) gel, it was transferred to PVDF (polyvinylidene fluoride) membrane using a semidry transfer system (Hoefer, Holliston, Mass., USA). Non-specific binding was blocked by incubation with 5% non-fat dry milk. The membrane was thermostatically incubated with a 500-fold diluted solution of a primary antibody at 4° C. overnight, and then incubated with an HRP (horseradish peroxidase) binding-secondary antibody diluted by 1:1000. The immune complex was detected using ECL detection kit (Amersham Biosciences Korea, Seoul, Korea) and X-ray film was automatically irradiated. Antibodies used for western blot were as follows. β-actin, iNOS (nitric oxide synthase), COX-2 (cyclooxygenase), P-JNK (phosphor-JNK), P-ERK (phosphor-ERK), Bcl-2 (B-cell lymphoma 2), Bax (B-cell lymphoma-2-associated X-protein), and cyclin D1 antibodies were purchased from Santa Cruz Biotechnology (Santa Cruz, Calif.). p-IκBα (phosphorylated inhibitor of kappa B alpha), p-STAT3 (phosphorylated signal transducer and activator of transcription 3), PARP (poly(ADP-ribose) polymerase), CDK4 (cyclin-dependent kinase 4), and CDK2 (cyclin dependent kinase 2) were purchased from Cell Signaling Technology (Beverly, Mass.). HO-1 (A heme oxygenase-1) antibody was purchased from Enzo life Sciences (Farmingdale, N.Y.). […]

In test [4] the test system is WIRS rats. Description: mRNA expression of inflammation mediators and PDGF in WIRS rats. In kind it is in vivo, rat. The settings on record: oral 8 hours before WIRS; L-Thr 0.15% by weight/diet; WIRS 6 hours. As to the method: as §2
Since SRMD was physiologically related to ischemic-reperfusion damage, in the animal experimental groups 1 to 4, mRNA expression of angiogenesis growth factors including PDGF (platelet-derived growth factor) and mRNA expression of inflammation mediators, iNOS, TNF-α, IFN-γ, and PDGF were measured, and the result was shown in FIG. 8a and FIG. 8b.
Specifically, the total RNA was extracted using RNeasy Mini kit (Qiagen Korea, Seoul, Korea). Amplification was analyzed using 10× reaction buffer (Promega Korea, Seoul, Korea), 1.5 mM/L MgCl2, […] deoxynucleotide triphosphate (dNTP), each primer […], and Taq DNA polymerase (Promega) 2.5 unit, using Perkin-Elmer GeneAmp PCR System 2400. Each cycle was composed of denaturation at 95° C. for 1 minute, annealing at 55° C. for […], and amplification at 72° C. for 45 seconds.

Test [5] deals with WIRS rats. Description: SRMD improving efficacy in WIRS rats (gross lesion index, pathologic scores). The test is classed as in vivo, rat. The settings on record: oral 8 hours before WIRS; L-Thr 0.15% by weight/diet; WIRS 6 hours. As to the method: as §1, §2
All experimental animals (rat) were sacrificed with a high dose of anesthetic (thiopental sodium, 50 mg/kg) after 6 hours of WIRS. The animal experimental groups 1-4 disclosed in the following Examples 10 to 12 mean the animal experimental groups 1-4 of the Table 5, and in FIG. 7a to FIG. 10, Groups 1-4 mean the animal experimental groups 1-4 of Table 5.
The stomach of the rat sacrificed in Example 9 was incised and opened along the larger curvature, and then washed with cold PBS solution. After determining the number and size of erosions or ulcers by enlarged photographs, the half was anatomized for anatomical observation. The incised stomach was spread over plastic sheet and fixed in 10% buffer formalin for 4 hours and used for production of a paraffin tissue slide, and the other half was stored in a liquid nitrogen tank for molecular biological observation. In addition, the mucosal homogenate was stored by mixing the same animal experimental groups.
The stomach sample was observed using […] naked eyes (FIG. 7a), and in the control group and each experimental group (animal experimental groups 1-4), gross lesion index, inflammation; pathologic score, ulcer/erosion; pathologic score, regeneration; pathologic score were calculated and shown in FIG. 7b.

Test [6] has as its system WIRS rats. Description: p-IκBα, p-ERK, p-JNK protein level in gastric mucosa of WIRS rats (western blot). In kind it is in vivo, rat. The settings on record: oral 8 hours before WIRS, WIRS 6 hours. The method, then:
as §2
(§3) In addition, in each of the animal experimental groups 1-4, the protein level of p-IκBα, p-ERK, and p-JNK was measured and shown in FIG. 8c and FIG. 8d. Specifically, to perform western blot for measuring the protein level, the collected gastric mucosa was homogenized in ice-cold 20 mM Tris-HCl buffer (pH 7.5) containing 2 mM EDTA (ethylenediaminetetraacetic acid), 0.5 mM EGTA (ethylene glycol tetraacetic acid), 300 mM sucrose, and 2 mM PMSF (phenylmethylsulfonyl fluoride) with a tissue homogenator. […] The immune complex was detected using ECL detection kit (Amersham Biosciences Korea, Seoul, Korea) and X-ray film was automatically irradiated. […]

Test [7] has as its system WIRS rats. Description: CDK4 and Cyclin D1 protein in WIRS rats. In kind it is in vivo, rat. The following applies: oral 8 hours before WIRS; WIRS 6 hours. As to the method: as §2, §3
Test [8] has as its system WIRS rats. Description: apoptosis on the gastric mucosa of WIRS rats (TUNEL, apoptotic index). The test is classed as in vivo, rat. The following applies: oral 8 hours before WIRS; WIRS 6 hours. As to the method: as §2
Specifically, apoptosis was visualized using TdT FragEL DNA fragmentation detection kit (Oncogene Research Products, Cambridge, Mass.) and TUNEL (Terminal deoxynucleotidyl transferase-mediated nick end labeling) method. To measure AI (apoptotic index) by finding a region in which apoptosis occurs in a large quantity (apoptotic hot spot) in each experimental group, TUNEL-immunostained section (terminal deoxynucleotidyl transferase mediated dUTP nick-end labeling (TUNEL)-immunostained section) was enlarged 100 folds and scanned. Then, the number of TUNEL-positive cells was counted in 400 fields to record AI. […]

Turning to `C[C@@H](O)[C@H](N)C(=O)O` [Sample 1, threonine], the “degree of gastrorrhagia reduced (therapeutic effect of gastric ulcer), rank order” value in test [1] was “Sample 1<Sample 5<Sample 4<Sample 3 or Sample 2”. In addition, in test [2], the “gastric mucin / mucus expression (PAS staining)” value is listed as “significantly preserved”. In test [3], the Bax expression entry was “significantly reduced”, the PARP division entry is on record as “significantly reduced”, the “cleaved caspase-3 expression” value is listed as “significantly reduced” and the “cleaved caspase-8 expression” value was “significantly reduced”. In test [4], the “IFN-γ mRNA expression” value is “significantly reduced”, the “PDGF mRNA expression” value is on record as “significantly reduced”, the “TNF-α mRNA expression” value is reported as “significantly reduced” and the “iNOS mRNA expression” value is listed as “significantly reduced”. Besides, in test [5], the “SRMD (erosions, hemorrhage, ulcers), stomach observation” value was “significantly improved”; the gross lesion index result is “significantly (p<0.05) improved”; the “inflammation; pathologic score” value is “significantly (p<0.05) improved”; the “regeneration; pathologic score” value was “significantly (p<0.05) improved”. Further, the “ulcer/erosion; pathologic score” value in test [5] is listed as “significantly (p<0.05) improved”. Moreover, in test [6], the “p-ERK activation (signaling)” value is reported as “partially inactivated” and the “p-JNK activation (signaling)” value is given as “partially inactivated”. For the same compound, in test [7], the “expression of CDK4” value is recorded as “significantly reduced” and the “expression of Cyclin D1” value is on record as “significantly reduced”. The “apoptosis level on the gastric mucosa (TUNEL)” value in test [8] was “significantly reduced”.
